Measured values as given in PubChem BioAssay AID296 (DTP/NCI, 2004).
“And” between values parts separate entries of the source, which are not always exact repeats. Equal entries are not always repeated. Inconclusive results are not listed.

Test system: MX-1 breast xenograft, nude mice, tumor weight T/C
Test: NCI In Vivo Anticancer Drug Screen. Data for tumor model Human Mammary Carcinoma MX-1 Xenograft (intrarenal inoculation) in NU/NU Swiss (nude) mice
Conditions: endpoint: mean tumor weight change, higher = larger tumour
In short: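 Mice carrying the implanted tumor receive either test agent or vehicle. Tumor size or survival is then recorded for both groups. Results are stated as the treated-to-control quotient.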

[1] = dose: 300.0 mg/kg/injection, schedule: Q04DX003 (sc), vehicle: saline with Tween-80
[2] = dose: 600.0 mg/kg/injection, schedule: Q04DX003 (sc), vehicle: saline with Tween-80
[3] = dose: 1200.0 mg/kg/injection, schedule: Q04DX003 (sc), vehicle: saline with Tween-80
[4] = dose: 2400.0 mg/kg/injection, schedule: Q04DX003 (sc), vehicle: saline with Tween-80

Cc1c2ccncc2c(C)c2c1[nH]c1ccccc12 was tested, and the T/C (dose: 6.25 mg/kg/injection, schedule: Q01DX010 (sc), vehicle: saline) was 63 % of control, the T/C (dose: 50.0 mg/kg/injection, schedule: Q01DX010 (sc), vehicle: suspension in saline) was 81 % of control and the T/C (dose: 200.0 mg/kg/injection, schedule: Q01DX010 (sc), vehicle: suspension in saline) was 85 % of control.

For CN1C(=O)C(=Cc2ccc(O)cc2)C(=O)N(C)C1=O, the T/C [1] was 96 % of control, the T/C [2] was 92 % of control and the T/C [3] was 99 % of control. The T/C [4] was 107 % of control.

In the case of Cc1cc(NCCCCCCNc2cc(C)nc3cc(N(C)C)ccc23)c2ccc(N(C)C)cc2n1, the T/C (dose: 37.5 mg/kg/injection, schedule: Q04DX003 (sc), vehicle: distilled water + Tween-80 + alcohol) is reported as 34 % of control, the T/C (dose: 75.0 mg/kg/injection, schedule: Q04DX003 (sc), vehicle: distilled water + Tween-80 + alcohol) is reported as 49 % of control and the T/C (dose: 150.0 mg/kg/injection, schedule: Q04DX003 (sc), vehicle: distilled water + Tween-80 + alcohol) is reported as 49 % of control. For the same compound, the T/C (dose: 300.0 mg/kg/injection, schedule: Q04DX003 (sc), vehicle: distilled water + Tween-80 + alcohol) was 30 % of control.

CCOC(=O)c1[nH]c2cccc3c2c1CC(Br)C3=O (stereo unspecified) was tested, and the T/C [1] was 86 % of control, the T/C [2] was 100 % of control and the T/C [3] was 73 % of control. For the same compound, the T/C [4] was 94 % of control.

For O=Cc1ccc(C(Cl)(Cl)Cl)cc1, the T/C (dose: 100.0 mg/kg/injection, schedule: Q01DX010 (sc), vehicle: saline with Tween-80) was 182 % of control, the T/C (dose: 400.0 mg/kg/injection, schedule: Q01DX010 (sc), vehicle: saline with Tween-80) was 120 % of control and the T/C (dose: 800.0 mg/kg/injection, schedule: Q01DX010 (sc), vehicle: saline with Tween-80) was 46 % of control.

For [Cl][Pt+2][Cl].[NH-]C1CCC1.[NH2-], the T/C (dose: 6.25 mg/kg/injection, schedule: Q04DX003 (sc), vehicle: suspension in saline) was -100 % of control and the T/C (dose: 25.0 mg/kg/injection, schedule: Q04DX003 (sc), vehicle: suspension in saline) was -84 % of control and -100 % of control.

For O=C1OC(C(O)CO)C(O)=C1O (stereo unspecified), the T/C (dose: 200.0 mg/kg/injection, schedule: Q01DX010 (sc), vehicle: saline) was 107 % of control, the T/C (dose: 400.0 mg/kg/injection, schedule: Q01DX010 (sc), vehicle: saline) was 110 % of control and the T/C (dose: 1600.0 mg/kg/injection, schedule: Q01DX010 (sc), vehicle: saline) was 121 % of control.

In the case of O=C1C(=O)c2ccccc2C(O)=C1CC=C(Cl)Cl, the T/C (dose: 25.0 mg/kg/injection, schedule: Q01DX010 (sc), vehicle: water) is reported as 68 % of control, the T/C (dose: 50.0 mg/kg/injection, schedule: Q01DX010 (sc), vehicle: water) is reported as 110 % of control and the T/C (dose: 100.0 mg/kg/injection, schedule: Q01DX010 (sc), vehicle: water) is reported as 109 % of control. The T/C (dose: 200.0 mg/kg/injection, schedule: Q01DX010 (sc), vehicle: water) was 106 % of control.

In the case of CN(C)CCOc1ccc2c(c1)C/C(=C/c1ncc([N+](=O)[O-])n1C)C2=O, the T/C [1] is reported as 81 % of control, the T/C [2] is reported as 68 % of control and the T/C [3] is reported as 89 % of control. The T/C [4] was 70 % of control.

In the case of N/C(=N\OC(=O)Nc1ccc(CSc2ccc(Cl)cc2)o1)c1ccccn1, the T/C (dose: 9.38 mg/kg/injection, schedule: Q04DX003 (sc), vehicle: saline) is reported as 62 % of control, the T/C (dose: 18.75 mg/kg/injection, schedule: Q04DX003 (sc), vehicle: saline) is reported as 66 % of control and the T/C (dose: 37.5 mg/kg/injection, schedule: Q04DX003 (sc), vehicle: saline) is reported as 40 % of control. The T/C (dose: 150.0 mg/kg/injection, schedule: Q04DX003 (sc), vehicle: Klucel (hydroxypropylcellulose) (HPC)) was 102 % of control and the T/C (dose: 300.0 mg/kg/injection, schedule: Q04DX003 (sc), vehicle: Klucel (hydroxypropylcellulose) (HPC)) was 97 % of control.
